Source: US10231954B2, “Neurodegenerative therapies” (LYTIX BIOPHARMA AS, priority 2014, dated 2019)
Like-named read-outs stand apart in the source and are kept apart here.

Assays:
Assay type in all cases: biochemical
[1] = biological target: SmMLCK (Homo sapiens, UniProt Q15746); assay: Kinase profiling SmMLCK; settings: for remaining activity at 100 µM: read-out: residual kinase activity, SmMLCK
[2] = biological target: T1, PKCz (Homo sapiens, UniProt Q05513); assay: Kinase profiling PKCz; settings: for remaining activity at 100 µM: read-out: residual kinase activity, PKCz
T1 sequence (Q05513 1-592): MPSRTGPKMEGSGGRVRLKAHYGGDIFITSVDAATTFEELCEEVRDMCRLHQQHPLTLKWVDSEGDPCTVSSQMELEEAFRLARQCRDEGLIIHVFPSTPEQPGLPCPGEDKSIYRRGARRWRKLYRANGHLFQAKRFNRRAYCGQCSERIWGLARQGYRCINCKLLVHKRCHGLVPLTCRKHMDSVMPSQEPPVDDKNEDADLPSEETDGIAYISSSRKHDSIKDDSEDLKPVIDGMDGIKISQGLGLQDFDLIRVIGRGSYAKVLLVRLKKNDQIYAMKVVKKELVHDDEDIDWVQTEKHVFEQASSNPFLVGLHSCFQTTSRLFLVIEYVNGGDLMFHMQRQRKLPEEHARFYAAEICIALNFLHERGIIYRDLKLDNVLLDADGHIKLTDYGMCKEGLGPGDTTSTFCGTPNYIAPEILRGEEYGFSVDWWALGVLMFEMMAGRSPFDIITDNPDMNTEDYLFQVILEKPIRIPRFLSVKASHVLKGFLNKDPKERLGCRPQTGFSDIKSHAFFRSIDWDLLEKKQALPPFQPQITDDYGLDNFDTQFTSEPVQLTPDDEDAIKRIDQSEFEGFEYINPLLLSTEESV
Text: (§1) Any value less that 25 is considered to be highly significant inhibition.

[3] = biological target: MARK3 (Homo sapiens, UniProt P27448); assay: Kinase profiling MARK3; settings: for remaining activity at 100 µM: read-out: residual kinase activity, MARK3
Text: as §1

[4] = biological target: ROCK 2 (Homo sapiens, UniProt O75116); assay: Kinase profiling ROCK 2; settings: for remaining activity at 100 µM: read-out: residual kinase activity, ROCK 2
Text: as §1

[5] = biological target: IGF-1R (Homo sapiens, UniProt P08069); assay: Kinase profiling IGF-1R; settings: for remaining activity at 100 µM: read-out: residual kinase activity, IGF-1R
Text: as §1

[6] = biological target: p38b MAPK (Homo sapiens, UniProt Q15759); assay: Kinase profiling p38b MAPK; settings: for remaining activity at 100 µM: read-out: residual kinase activity, p38b MAPK
Text: as §1

[7] = biological target: PKA (Homo sapiens, UniProt P17612); assay: Kinase profiling PKA; settings: for remaining activity at 100 µM: read-out: residual kinase activity, PKA
Text: as §1

[8] = biological target: MKK2 (Homo sapiens, UniProt P36507); assay: Kinase profiling MKK2; settings: for remaining activity at 100 µM: read-out: residual kinase activity, MKK2
Sequence of MKK2 (P36507 whole entry, species assumed): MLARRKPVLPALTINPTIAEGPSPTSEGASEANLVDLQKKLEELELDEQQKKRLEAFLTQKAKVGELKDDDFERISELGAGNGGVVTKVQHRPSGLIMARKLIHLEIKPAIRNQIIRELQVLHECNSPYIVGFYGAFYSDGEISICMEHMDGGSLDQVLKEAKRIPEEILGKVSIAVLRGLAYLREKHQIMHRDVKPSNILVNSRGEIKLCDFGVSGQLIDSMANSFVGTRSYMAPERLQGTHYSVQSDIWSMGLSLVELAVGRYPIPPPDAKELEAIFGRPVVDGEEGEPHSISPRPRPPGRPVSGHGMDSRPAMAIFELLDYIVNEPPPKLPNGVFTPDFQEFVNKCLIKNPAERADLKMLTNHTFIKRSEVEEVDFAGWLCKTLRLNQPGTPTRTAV
Text: as §1

[9] = biological target: Lck (Homo sapiens, UniProt P06239); assay: Kinase profiling Lck; settings: for remaining activity at 100 µM: read-out: residual kinase activity, Lck
Text: as §1

[10] = biological target: T2, TBK1 (Homo sapiens, UniProt Q9UHD2); assay: Kinase profiling TBK1; settings: for remaining activity at 100 µM: read-out: residual kinase activity, TBK1
T2 sequence (Q9UHD2 1-729): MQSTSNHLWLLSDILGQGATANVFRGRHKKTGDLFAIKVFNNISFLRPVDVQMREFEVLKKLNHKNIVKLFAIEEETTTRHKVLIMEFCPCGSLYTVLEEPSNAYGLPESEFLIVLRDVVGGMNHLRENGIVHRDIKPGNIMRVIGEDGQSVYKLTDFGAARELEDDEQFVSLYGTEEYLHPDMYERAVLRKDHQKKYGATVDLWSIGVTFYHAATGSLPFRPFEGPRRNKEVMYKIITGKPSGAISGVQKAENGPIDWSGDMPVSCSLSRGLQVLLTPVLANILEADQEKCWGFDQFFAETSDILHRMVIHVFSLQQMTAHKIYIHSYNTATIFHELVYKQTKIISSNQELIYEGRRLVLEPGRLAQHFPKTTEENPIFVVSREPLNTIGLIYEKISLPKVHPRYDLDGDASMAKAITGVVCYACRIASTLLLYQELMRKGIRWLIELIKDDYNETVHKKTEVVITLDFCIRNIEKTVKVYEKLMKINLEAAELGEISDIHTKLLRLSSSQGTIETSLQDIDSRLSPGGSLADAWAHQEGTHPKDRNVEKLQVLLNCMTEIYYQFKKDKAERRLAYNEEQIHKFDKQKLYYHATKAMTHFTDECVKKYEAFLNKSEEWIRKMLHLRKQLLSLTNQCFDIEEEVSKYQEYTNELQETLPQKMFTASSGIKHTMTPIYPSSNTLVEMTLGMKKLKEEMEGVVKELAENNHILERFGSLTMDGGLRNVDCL
Text: as §1

[11] = biological target: MKK1 (Homo sapiens, UniProt Q02750); assay: Kinase profiling MKK1; settings: for remaining activity at 100 µM: read-out: residual kinase activity, MKK1
Sequence of MKK1 (Q02750 whole entry, species assumed): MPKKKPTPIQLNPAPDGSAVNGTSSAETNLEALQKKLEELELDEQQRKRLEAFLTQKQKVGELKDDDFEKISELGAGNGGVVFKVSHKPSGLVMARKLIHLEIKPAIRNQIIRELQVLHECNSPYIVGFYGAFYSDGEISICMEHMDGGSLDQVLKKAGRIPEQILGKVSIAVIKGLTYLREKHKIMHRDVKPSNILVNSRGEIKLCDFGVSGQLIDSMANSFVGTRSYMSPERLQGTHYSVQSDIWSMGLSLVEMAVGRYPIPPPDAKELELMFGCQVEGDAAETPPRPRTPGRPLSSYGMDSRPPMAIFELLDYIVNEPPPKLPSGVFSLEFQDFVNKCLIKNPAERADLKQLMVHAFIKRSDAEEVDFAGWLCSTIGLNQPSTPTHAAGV
Text: as §1

[12] = biological target: p38a MAPK (Homo sapiens, UniProt Q16539); assay: Kinase profiling p38a MAPK; settings: for remaining activity at 100 µM: read-out: residual kinase activity, p38a MAPK
Sequence of p38a MAPK (Q16539 whole entry): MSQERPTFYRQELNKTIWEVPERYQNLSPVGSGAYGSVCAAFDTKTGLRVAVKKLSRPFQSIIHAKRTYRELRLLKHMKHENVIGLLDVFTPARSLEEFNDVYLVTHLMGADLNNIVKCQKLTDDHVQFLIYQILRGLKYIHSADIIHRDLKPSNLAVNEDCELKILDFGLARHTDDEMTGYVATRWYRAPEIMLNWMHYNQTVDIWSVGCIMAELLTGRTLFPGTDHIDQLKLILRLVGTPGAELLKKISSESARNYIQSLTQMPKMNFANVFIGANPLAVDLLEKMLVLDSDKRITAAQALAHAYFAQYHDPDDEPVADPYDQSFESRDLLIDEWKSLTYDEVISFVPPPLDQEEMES
Text: as §1

[13] = biological target: Src (Homo sapiens, UniProt P12931); assay: Kinase profiling Src; settings: for remaining activity at 100 µM: read-out: residual kinase activity, Src
Text: as §1

[14] = tested on: VEG-FR; assay: Kinase profiling VEG-FR
Text: as §1

[15] = biological target: SYK (Homo sapiens, UniProt P43405); assay: Kinase profiling SYK; settings: for remaining activity at 100 µM: read-out: residual kinase activity, SYK
Text: as §1

[16] = biological target: PRK2 (Homo sapiens, UniProt Q16513); assay: Kinase profiling PRK2; settings: for remaining activity at 100 µM: read-out: residual kinase activity, PRK2
Sequence of PRK2 (Q16513 whole entry, species assumed): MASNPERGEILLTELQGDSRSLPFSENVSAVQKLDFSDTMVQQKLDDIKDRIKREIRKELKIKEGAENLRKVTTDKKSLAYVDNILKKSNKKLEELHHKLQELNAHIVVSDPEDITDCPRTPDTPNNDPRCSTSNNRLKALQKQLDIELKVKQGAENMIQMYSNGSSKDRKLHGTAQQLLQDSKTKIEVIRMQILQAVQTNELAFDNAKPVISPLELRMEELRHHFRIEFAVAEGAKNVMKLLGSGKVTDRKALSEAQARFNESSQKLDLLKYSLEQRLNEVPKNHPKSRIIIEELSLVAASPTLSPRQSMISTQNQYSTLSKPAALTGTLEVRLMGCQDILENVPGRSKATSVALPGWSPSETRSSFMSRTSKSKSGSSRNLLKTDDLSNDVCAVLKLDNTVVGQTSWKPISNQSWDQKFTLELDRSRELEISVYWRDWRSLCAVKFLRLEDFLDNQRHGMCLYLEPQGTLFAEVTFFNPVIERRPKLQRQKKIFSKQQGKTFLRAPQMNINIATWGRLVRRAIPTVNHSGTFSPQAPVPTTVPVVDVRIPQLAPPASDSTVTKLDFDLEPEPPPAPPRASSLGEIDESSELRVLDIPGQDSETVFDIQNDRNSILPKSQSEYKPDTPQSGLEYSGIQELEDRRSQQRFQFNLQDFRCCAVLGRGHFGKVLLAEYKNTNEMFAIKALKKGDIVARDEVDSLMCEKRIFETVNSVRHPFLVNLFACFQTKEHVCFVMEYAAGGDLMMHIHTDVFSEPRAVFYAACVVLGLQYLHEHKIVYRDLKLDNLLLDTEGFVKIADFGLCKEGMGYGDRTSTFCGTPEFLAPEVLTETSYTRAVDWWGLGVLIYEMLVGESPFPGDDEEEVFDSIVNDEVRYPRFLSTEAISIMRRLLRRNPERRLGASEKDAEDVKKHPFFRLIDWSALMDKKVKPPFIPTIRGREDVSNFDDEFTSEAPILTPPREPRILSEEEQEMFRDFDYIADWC
Text: as §1

[17] = biological target: PKCa (Homo sapiens, UniProt P17252); assay: Kinase profiling PKCa; settings: for remaining activity at 100 µM: read-out: residual kinase activity, PKCa
Text: as §1

[18] = biological target: PAK4 (Homo sapiens, UniProt O96013); assay: Kinase profiling PAK4; settings: for remaining activity at 100 µM: read-out: residual kinase activity, PAK4
Sequence of PAK4 (O96013 whole entry, species assumed): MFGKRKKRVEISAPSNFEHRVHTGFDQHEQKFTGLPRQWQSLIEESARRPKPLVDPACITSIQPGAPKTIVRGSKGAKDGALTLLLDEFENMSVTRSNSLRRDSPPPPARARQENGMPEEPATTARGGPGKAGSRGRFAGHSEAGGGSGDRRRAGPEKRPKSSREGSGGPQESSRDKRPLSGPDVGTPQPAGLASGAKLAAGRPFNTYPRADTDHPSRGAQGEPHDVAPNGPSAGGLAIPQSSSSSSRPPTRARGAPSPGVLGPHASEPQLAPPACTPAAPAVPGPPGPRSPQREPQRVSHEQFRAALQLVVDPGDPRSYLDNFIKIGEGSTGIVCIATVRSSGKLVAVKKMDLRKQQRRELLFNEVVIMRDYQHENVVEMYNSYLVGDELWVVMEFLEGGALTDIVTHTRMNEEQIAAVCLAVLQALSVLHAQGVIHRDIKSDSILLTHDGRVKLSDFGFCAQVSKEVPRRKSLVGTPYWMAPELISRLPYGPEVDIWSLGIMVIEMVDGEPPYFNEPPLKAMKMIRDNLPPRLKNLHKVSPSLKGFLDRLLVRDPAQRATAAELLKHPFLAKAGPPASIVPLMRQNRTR
Text: as §1

[19] = biological target: CAMKKb (Homo sapiens, UniProt Q96RR4); assay: Kinase profiling CAMKKb; settings: for remaining activity at 100 µM: read-out: residual kinase activity, CAMKKb
Sequence of CAMKKb (Q96RR4 whole entry, species assumed): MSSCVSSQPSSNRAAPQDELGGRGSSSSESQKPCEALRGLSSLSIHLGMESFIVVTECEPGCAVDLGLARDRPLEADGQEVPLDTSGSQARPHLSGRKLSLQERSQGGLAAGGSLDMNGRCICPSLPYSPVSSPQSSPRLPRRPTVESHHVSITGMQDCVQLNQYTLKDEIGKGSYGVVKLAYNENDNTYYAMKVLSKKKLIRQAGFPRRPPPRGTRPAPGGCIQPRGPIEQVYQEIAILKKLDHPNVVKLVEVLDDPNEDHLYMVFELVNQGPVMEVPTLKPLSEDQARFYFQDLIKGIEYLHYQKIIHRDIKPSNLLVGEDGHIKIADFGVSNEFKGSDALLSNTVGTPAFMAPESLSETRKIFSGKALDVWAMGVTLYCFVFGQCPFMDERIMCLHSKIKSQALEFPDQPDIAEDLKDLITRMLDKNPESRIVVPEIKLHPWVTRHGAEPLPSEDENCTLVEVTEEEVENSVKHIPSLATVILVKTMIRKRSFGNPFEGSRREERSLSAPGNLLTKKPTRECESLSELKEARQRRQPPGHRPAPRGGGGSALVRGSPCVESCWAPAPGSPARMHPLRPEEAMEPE
Text: as §1

[20] = 100 micromolar inhibitor, 100 = no change
[21] = 100 micromolar inhibitor concentration, 100 is no change

Sequence of SmMLCK (Q15746 923-1914): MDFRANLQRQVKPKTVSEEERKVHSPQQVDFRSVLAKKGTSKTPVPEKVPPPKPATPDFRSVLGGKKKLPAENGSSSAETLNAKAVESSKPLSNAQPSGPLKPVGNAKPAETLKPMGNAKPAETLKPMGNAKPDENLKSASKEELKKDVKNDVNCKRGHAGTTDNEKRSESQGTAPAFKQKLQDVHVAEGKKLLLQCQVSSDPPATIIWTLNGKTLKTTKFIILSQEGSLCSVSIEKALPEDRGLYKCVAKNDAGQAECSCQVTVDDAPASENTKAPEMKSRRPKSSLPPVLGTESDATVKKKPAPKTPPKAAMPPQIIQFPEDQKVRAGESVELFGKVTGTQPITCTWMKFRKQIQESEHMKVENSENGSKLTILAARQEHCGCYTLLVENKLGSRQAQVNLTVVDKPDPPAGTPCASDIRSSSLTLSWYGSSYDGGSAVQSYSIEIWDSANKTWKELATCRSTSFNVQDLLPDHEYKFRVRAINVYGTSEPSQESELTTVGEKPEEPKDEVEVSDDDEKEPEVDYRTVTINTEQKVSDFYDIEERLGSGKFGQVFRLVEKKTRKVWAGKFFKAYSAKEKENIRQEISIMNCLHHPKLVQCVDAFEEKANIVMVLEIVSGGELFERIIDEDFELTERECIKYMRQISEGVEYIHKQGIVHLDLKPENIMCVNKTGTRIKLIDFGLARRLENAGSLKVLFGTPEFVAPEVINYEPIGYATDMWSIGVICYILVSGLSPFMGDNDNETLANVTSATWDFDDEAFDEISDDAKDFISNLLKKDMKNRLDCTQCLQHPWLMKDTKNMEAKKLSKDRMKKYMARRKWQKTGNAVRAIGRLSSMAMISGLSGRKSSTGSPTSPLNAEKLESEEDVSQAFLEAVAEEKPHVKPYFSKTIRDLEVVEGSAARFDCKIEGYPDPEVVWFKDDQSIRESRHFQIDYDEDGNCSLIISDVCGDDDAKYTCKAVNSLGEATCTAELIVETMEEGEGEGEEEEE

SMILES	residual kinase activity, SmMLCK [1, 21]	residual kinase activity, PKCz [2, 21]	residual kinase activity, MARK3 [3, 21]	residual kinase activity, ROCK 2 [4, 21]	residual kinase activity, IGF-1R [5, 21]	residual kinase activity, p38b MAPK [6, 21]	residual kinase activity, PKA [7, 21]	residual kinase activity, MKK2 [8, 21]	residual kinase activity, Lck [9, 21]	residual kinase activity, TBK1 [10, 21]	residual kinase activity, MKK1 [11, 21]	residual kinase activity, p38a MAPK [12, 21]	residual kinase activity, Src [13, 21]	residual kinase activity, VEG-FR [14, 21]	residual kinase activity, SYK [15, 21]	residual kinase activity, PRK2 [16, 21]	residual kinase activity, PKCa [17, 21]	residual kinase activity, PAK4 [18, 21]	residual kinase activity, CAMKKb [19, 21]	also measured
CC(=O)Nc1cccc(NC(=O)c2nc3ccc(O)cc3s2)c1 [Compound 03-07, N-(3-acetamidophenyl)-6-hydroxybenzo[d]thiazole-2-carboxamide]																				remaining activity at 100 µM [1, 20]: 21%; remaining activity at 100 µM [2, 20]: 107%; remaining activity at 100 µM [3, 20]: 72%; remaining activity at 100 µM [4, 20]: 27%; remaining activity at 100 µM [5, 20]: 96%; remaining activity at 100 µM [6, 20]: 96%; remaining activity at 100 µM [7, 20]: 91%; remaining activity at 100 µM [8, 20]: 88%; remaining activity at 100 µM [9, 20]: 88%; remaining activity at 100 µM [10, 20]: 92%; remaining activity at 100 µM [11, 20]: 85%; remaining activity at 100 µM [12, 20]: 93%; remaining activity at 100 µM [13, 20]: 101%; residual kinase activity, VEG-FR [14, 20]: 28; remaining activity at 100 µM [15, 20]: 102%; remaining activity at 100 µM [16, 20]: 74%; remaining activity at 100 µM [17, 20]: 81%; remaining activity at 100 µM [18, 20]: 92%; remaining activity at 100 µM [19, 20]: 30%
O=C(Nc1nc2cc(O)ccc2s1)c1ccncc1 [Compound 03-11]	63	86	75	80	107	97	110	98	93	80	88	106	79	58	75	77	91	73	88	
O=C(Nc1nc2ccc(O)cc2s1)c1ccccn1 [Compound 03-12]	9	88	79	68	54	105	97	82	82	68	80	107	105	17	99	66	101	87	41	
O=C(Nc1nc2cc(O)ccc2s1)c1ccccn1 [Compound 03-13]	37	102	68	96	84	91	102	82	77	73	107	96	70	24	106	97	112	115	69	
COc1ccc2sc(NC(C)=O)nc2c1 [Compound 03-21]														71						remaining activity at 100 µM [1, 21]: 50%; remaining activity at 100 µM [2, 21]: 85%; remaining activity at 100 µM [3, 21]: 72%; remaining activity at 100 µM [4, 21]: 52%; remaining activity at 100 µM [5, 21]: 78%; remaining activity at 100 µM [6, 21]: 101%; remaining activity at 100 µM [7, 21]: 11%; remaining activity at 100 µM [8, 21]: 90%; remaining activity at 100 µM [9, 21]: 109%; remaining activity at 100 µM [10, 21]: 81%; remaining activity at 100 µM [11, 21]: 64%; remaining activity at 100 µM [12, 21]: 96%; remaining activity at 100 µM [13, 21]: 86%; remaining activity at 100 µM [15, 21]: 72%; remaining activity at 100 µM [16, 21]: 67%; remaining activity at 100 µM [17, 21]: 101%; remaining activity at 100 µM [18, 21]: 94%; remaining activity at 100 µM [19, 21]: 87%
